Reference: BigSolDB 2.1

N#Cc1ccccc1-c1ccc(CBr)cc1
solubility (mole fraction)
Settings | 278.15 K | 283.15 K | 288.15 K | 293.15 K | 298.15 K | 303.15 K | 308.15 K | 313.15 K
in acetone | 0.0151 | 0.0169 | 0.0214 | 0.0241 | 0.0306 | 0.0352 | 0.0424 | 0.0492
in n-propanol | 0.00052 | 0.00075 | 0.00099 | 0.00126 | 0.00181 | 0.00226 | 0.0027 | 0.00343
